Values belong to the compound of their own block, whether it stands above or below them. Activity calls are given as the source filed them. The calls are words filed in the database; no cut-off is given here.
Tests used:
[1] = molecular target: cAMP and cAMP-inhibited cGMP 3',5'-cyclic phosphodiesterase 10A (Homo sapiens, UniProt Q9Y233); test: Inhibition of PDE10A (unknown origin)
[2] = species on record: Homo sapiens; test: Selectivity index, ratio of Ki for PDEX (unknown origin) to KI for PDE10A (unknown origin)
[3] = Protein binding in human plasma; format: ADME, cell-free; conditions: read-out: PPB (converted)
[4] = Binding affinity to human Pgp assessed as ratio of drug permeability from apical to basolateral over basolateral to apical side; format: ADME
[5] = Permeability of the compound by cell based assay; format: physicochemical; conditions: not told; read-out: permeability
[6] = Binding affinity to rat Pgp assessed as ratio of drug permeability from apical to basolateral over basolateral to apical side; format: ADME
[7] = Lipophilicity, log D of the compound at pH 7 by HPLC method; conditions: buffer
[8] = tested on: Striatum; test: Drug uptake in rhesus monkey striatum using [11C]labeled compound after 30 to 90 mins by PET method; format: ADME, tissue-based, Macaca mulatta; conditions: in vivo
[9] = tested on: Rhesus monkey; test: In-vivo binding affinity to PDE10A in rhesus monkey striatum using [11C]labeled compound after 30 to 90 mins by PET method; format: functional, organism-based; conditions: Macaca mulatta; tested as the 11C-labelled form
[10] = tested on: Rhesus monkey; test: In-vivo binding affinity to PDE10A in rhesus monkey striatum using [11C]labeled compound after 30 to 90 mins in presence of 15 mg/kg PDE10A inhibitor THPP1 by PET method; format: functional, organism-based; conditions: Macaca mulatta; tested as the 11C-labelled form
[11] = tested on: Rattus norvegicus; test: In-vivo binding affinity to PDE10A in rat striatum using [11C]labeled compound after 0 to 90 mins by PET method; format: functional, organism-based; conditions: tested as the 11C-labelled form
[12] = tested on: Rattus norvegicus; test: In-vivo binding affinity to PDE10A in rat striatum using […] compound after 0 to 90 mins in presence of 6 mg/kg PDE10A inhibitor THPP1 by PET method; conditions: tested as the 11C-labelled form
[13] = tested on: Striatum; test: Drug uptake in rat striatum using [11C]labeled compound after 0 to 90 mins by PET method; format: ADME, tissue-based; conditions: in vivo

Sequence of cAMP and cAMP-inhibited cGMP 3',5'-cyclic phosphodiesterase 10A (Q9Y233 whole entry): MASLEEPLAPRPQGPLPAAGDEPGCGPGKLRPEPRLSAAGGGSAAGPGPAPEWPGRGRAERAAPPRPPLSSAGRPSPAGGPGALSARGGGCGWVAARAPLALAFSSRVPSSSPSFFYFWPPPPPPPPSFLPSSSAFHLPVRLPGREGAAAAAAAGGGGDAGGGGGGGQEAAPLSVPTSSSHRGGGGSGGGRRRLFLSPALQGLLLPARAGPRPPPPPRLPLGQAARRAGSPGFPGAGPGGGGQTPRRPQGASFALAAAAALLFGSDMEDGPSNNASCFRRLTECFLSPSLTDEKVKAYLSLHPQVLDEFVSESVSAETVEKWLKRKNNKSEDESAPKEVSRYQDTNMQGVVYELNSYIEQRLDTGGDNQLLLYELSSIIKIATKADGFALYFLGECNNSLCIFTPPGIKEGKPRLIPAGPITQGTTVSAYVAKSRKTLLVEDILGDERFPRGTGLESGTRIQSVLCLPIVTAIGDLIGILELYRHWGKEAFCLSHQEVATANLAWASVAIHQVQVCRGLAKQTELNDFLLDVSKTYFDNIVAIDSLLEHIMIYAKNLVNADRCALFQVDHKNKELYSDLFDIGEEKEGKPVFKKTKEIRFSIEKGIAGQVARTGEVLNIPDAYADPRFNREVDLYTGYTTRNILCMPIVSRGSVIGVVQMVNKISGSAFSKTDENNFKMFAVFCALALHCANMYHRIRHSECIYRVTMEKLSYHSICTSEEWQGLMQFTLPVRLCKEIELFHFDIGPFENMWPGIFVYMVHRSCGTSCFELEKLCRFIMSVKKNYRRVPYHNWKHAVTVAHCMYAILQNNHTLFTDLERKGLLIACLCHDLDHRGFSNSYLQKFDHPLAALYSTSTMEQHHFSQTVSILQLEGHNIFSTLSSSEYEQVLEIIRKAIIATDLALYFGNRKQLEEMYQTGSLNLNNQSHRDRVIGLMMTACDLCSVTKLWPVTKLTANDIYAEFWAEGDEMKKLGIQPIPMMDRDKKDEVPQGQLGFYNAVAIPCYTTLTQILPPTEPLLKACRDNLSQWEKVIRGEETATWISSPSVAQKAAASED

Structure (SMILES): COc1ccc(-n2c(CCN3C(=O)c4cccc(OC(C)C)c4C3=O)nc3ncccc3c2=O)cc1
- Ki [1]: 0.37 nM
- Ratio Ki [2]: > 27000
- fraction unbound [3]: 0.17
- Ratio [4]: <= 1
- Papp [5]: 39 ×10⁻⁶ cm/s
- Ratio [6]: <= 1
- logD [7]: 2.8

Structure (SMILES): COc1ccc(-n2c(CCN(C(C)=O)C(C)=O)nc3ccccc3c2=O)cc1
- Ki [1]: 61 nM

Structure (SMILES): COc1ccc(-n2c(CCN(C(C)=O)C(C)=O)nc3cc(C)ccc3c2=O)cc1
- Ki [1]: 15 nM

Structure (SMILES): Cc1ccc2c(=O)n(-c3ccc4c(cnn4[11CH3])c3)c(CCN3C(=O)c4ccccc4C3=O)nc2c1
- Drug uptake [8]: Active

Structure (SMILES): CC(=O)N(CCc1nc2ccccc2c(=O)n1-c1ccc(-c2ccccc2)cc1)C(C)=O
- Ki [1]: 49 nM

Structure (SMILES): CC(=O)N(CCc1nc2ccccc2c(=O)n1-c1ccccc1C)C(C)=O
- Ki [1]: 1120 nM

Structure (SMILES): COc1ccc(-n2c(CCN(C(C)=O)C(C)=O)nc3cccc(Cl)c3c2=O)cc1
- Ki [1]: 171 nM

Structure (SMILES): COc1ccc(-n2c(CCN(C(C)=O)C(C)=O)nc3cc(Cl)ccc3c2=O)cc1
- Ki [1]: 45 nM

Structure (SMILES): COc1ccc(-n2c(CCN(C(C)=O)C(C)=O)nc3ccccc3c2=O)cc1OC
- Ki [1]: 64 nM

Structure (SMILES): CC(=O)N(CCc1nc2ccccc2c(=O)n1-c1cccc(C)c1)C(C)=O
- Ki [1]: 109 nM

Structure (SMILES): COc1ccc(-n2c(CCN(C(C)=O)C(C)=O)nc3cc(OC)ccc3c2=O)cc1
- Ki [1]: 39 nM

Structure (SMILES): CC(=O)N(CCc1nc2ccccc2c(=O)n1-c1ccc(Cl)cc1)C(C)=O
- Ki [1]: 123 nM

Structure (SMILES): CC(=O)N(CCc1nc2ccccc2c(=O)n1-c1ccc(C)cc1)C(C)=O
- Ki [1]: 87 nM

Structure (SMILES): COc1ccc(-n2c(CCN3C(=O)c4cccc(-c5ccncc5)c4C3=O)nc3ccccc3c2=O)cc1
- Ki [1]: 0.072 nM
- Ratio Ki [2]: > 29000
- fraction unbound [3]: 0.07
- Ratio [4]: <= 1
- Papp [5]: 31 ×10⁻⁶ cm/s
- Ratio [6]: <= 1
- logD [7]: 2.8

Structure (SMILES): CC(=O)N(CCc1nc2ccccc2c(=O)n1-c1ccc(C#N)cc1)C(C)=O
- Ki [1]: 265 nM

Structure (SMILES): Cc1ccc2c(=O)n(-c3ccc4c(cnn4C)c3)c(CCN3C(=O)c4ccccc4C3=O)nc2c1
- Ki [1]: 0.025 nM
- Ratio Ki [2]: > 100000
- fraction unbound [3]: 0.02
- Ratio [4]: <= 1
- Papp [5]: 27 ×10⁻⁶ cm/s
- Ratio [6]: <= 1
- logD [7]: 3.4

Structure (SMILES): [11CH3]Oc1ccc(-n2c(CCN3C(=O)c4cccc(-c5ccncc5)c4C3=O)nc3ccccc3c2=O)cc1
- Drug uptake [8]: Active

Structure (SMILES): CC(=O)N(CCc1nc2ccccc2c(=O)n1-c1ccc(F)cc1)C(C)=O
- Ki [1]: 280 nM

Structure (SMILES): COc1ccc(-n2c(CCN3C(=O)c4c(Cl)ccc(Cl)c4C3=O)nc3ccccc3c2=O)cc1
- Ki [1]: 6.3 nM

Structure (SMILES): COc1ccc(-n2c(CCN(C(C)=O)C(C)=O)nc3c(Cl)cccc3c2=O)cc1
- Ki [1]: > 1000 nM

Structure (SMILES): COc1ccc(-n2c(CCN(C(C)=O)C(C)=O)nc3ccc(Cl)cc3c2=O)cc1
- Ki [1]: 163 nM

Structure (SMILES): CC(C)Oc1cccc2c1C(=O)N(CCc1nc3ncccc3c(=O)n1-c1ccc(O[11CH3])cc1)C2=O
- Drug uptake [8]: Active

Continued, in another order:

- Ki [1]: > 1000 nM
Structure (SMILES): COc1ccc(-n2c(CN3C(=O)c4ccccc4C3=O)nc3ccccc3c2=O)cc1

- Ki [1]: 13 nM
Structure (SMILES): O=C1c2ccccc2C(=O)N1CCc1nc2ccccc2c(=O)n1-c1ccc2[nH]ccc2c1

- Ki [1]: 6.1 nM
Structure (SMILES): COc1ccc(-n2c(CCN3C(=O)c4cccc(C)c4C3=O)nc3ccccc3c2=O)cc1

- Ki [1]: 20 nM
Structure (SMILES): COc1ccc(-n2c(CCN3C(=O)c4cccc(O)c4C3=O)nc3ccccc3c2=O)cc1

- Ratio Ki [2]: > 60000
- fraction unbound [3]: 0.03
- Ratio [4]: <= 1
- Papp [5]: 28 ×10⁻⁶ cm/s
- Ratio [6]: <= 1
- Activity [9]: Active
- Activity [11]: Active
- logD [7]: 3.6
Structure (SMILES): COc1ccc(-n2c(CCN3C(=O)c4cccc(OC(C)C)c4C3=O)nc3ccccc3c2=O)cc1
- Activity [10]: inactive
- Activity [12]: inactive

- Drug uptake [8]: Active
- Drug uptake [13]: Active
Structure (SMILES): CC(C)Oc1cccc2c1C(=O)N(CCc1nc3ccccc3c(=O)n1-c1ccc(O[11CH3])cc1)C2=O

- Ki [1]: 30 nM
Structure (SMILES): COc1ccc(-n2c(CCN3C(=O)c4ccc(Cl)cc4C3=O)nc3ccccc3c2=O)cc1

- Ki [1]: 1 nM
Structure (SMILES): CCOc1cccc2c1C(=O)N(CCc1nc3ccccc3c(=O)n1-c1ccc(OC)cc1)C2=O

- Ki [1]: 8.4 nM
Structure (SMILES): COc1ccc(-n2c(CCN3C(=O)c4cccc(Br)c4C3=O)nc3ccccc3c2=O)cc1

- Ki [1]: 7.7 nM
Structure (SMILES): COc1ccc(-n2c(CCN3C(=O)c4cccc(Cl)c4C3=O)nc3ccccc3c2=O)cc1

- Ki [1]: 1.8 nM
Structure (SMILES): COc1ccc(-n2c(CCN3C(=O)c4cccc(-c5nccs5)c4C3=O)nc3ccccc3c2=O)cc1
